How the values were obtained:
[1] = target: Uracil-DNA glycosylase (Homo sapiens) (UniProt P13051); details: Compound Concentration 10.0 uM, Hit No;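 note: UNG excision on a quenched double-stranded DNA oligo probe, with APE1 added for strand incision and turnover, read as fluorescence at 594 nm as strands separate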
[2] = target: N-glycosylase/DNA lyase (Homo sapiens) (UniProt O15527); details: Compound Concentration 10.0 uM, Hit No;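 note: OGG1 cleavage of a quenched duplex DNA oligonucleotide, coupled to APE1 for strand incision, read as fluorescence at 594 nm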
[3] = target: Endonuclease 8-like 1 (Homo sapiens) (UniProt Q96FI4); details: Compound Concentration 10.0 uM, Hit No;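 note: fluorescence at 594 nm from quenched duplex DNA oligonucleotides released by NEIL1 cleavage and strand separation, reported as reduction of this enzyme activity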
[4] = target: DNA-3-methyladenine glycosylase (Homo sapiens) (UniProt P29372); details: Compound Concentration 10.0 uM;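 note: enzyme assay where MPG cuts a quenched duplex DNA oligonucleotide probe, paired with APE1 for strand incision and turnover, read as fluorescence at 594 nm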
[5] = target: G/T mismatch-specific thymine DNA glycosylase (Homo sapiens) (UniProt Q13569); details: Compound Concentration 10.0 uM;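 note: human TDG cleavage of quenched duplex DNA oligonucleotides coupled to APE1, strand release read as fluorescence at 594 nm, inhibition of TDG activity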
[6] = target: Methyl-CpG-binding domain protein 4 (Homo sapiens) (UniProt O95243); details: Compound Concentration 10.0 uM;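 note: MBD4 activity read as fluorescence at 594 nm from cleavage and release of a quenched duplex DNA oligonucleotide, with APE1 coupled to incise the strand and raise turnover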
[7] = target: T1, Adenine DNA glycosylase (Homo sapiens) (UniProt Q9UIF7); details: Compound Concentration 10.0 uM, Hit No;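 note: human MUTYH activity read as 594 nm fluorescence from cleavage and release of a quenched DNA duplex, coupled with APE1 for strand incision, lower signal meaning inhibition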
T1 sequence (whole entry): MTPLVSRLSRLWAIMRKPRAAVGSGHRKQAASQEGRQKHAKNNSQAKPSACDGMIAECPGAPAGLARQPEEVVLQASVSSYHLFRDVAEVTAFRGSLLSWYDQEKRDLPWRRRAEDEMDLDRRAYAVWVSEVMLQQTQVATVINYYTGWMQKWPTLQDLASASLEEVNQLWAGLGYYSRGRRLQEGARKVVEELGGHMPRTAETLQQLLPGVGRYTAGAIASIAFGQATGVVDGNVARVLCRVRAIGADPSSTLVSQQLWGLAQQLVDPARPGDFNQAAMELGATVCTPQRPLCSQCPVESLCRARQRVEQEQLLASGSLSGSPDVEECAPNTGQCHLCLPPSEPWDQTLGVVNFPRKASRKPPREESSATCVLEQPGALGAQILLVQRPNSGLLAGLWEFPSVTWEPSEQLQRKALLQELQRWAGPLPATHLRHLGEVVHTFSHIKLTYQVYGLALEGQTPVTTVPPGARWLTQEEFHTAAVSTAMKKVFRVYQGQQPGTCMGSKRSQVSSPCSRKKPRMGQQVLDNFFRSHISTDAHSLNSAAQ

[8] = target: T2, Single-strand selective monofunctional uracil DNA glycosylase (Homo sapiens) (UniProt Q53HV7); details: Compound Concentration 10.0 uM, Hit No;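 note: enzymatic SMUG1 assay coupled with APE1, reading fluorescence at 594 nm released when a quenched double-stranded DNA oligonucleotide substrate is cleaved and separated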
T2 sequence (whole entry): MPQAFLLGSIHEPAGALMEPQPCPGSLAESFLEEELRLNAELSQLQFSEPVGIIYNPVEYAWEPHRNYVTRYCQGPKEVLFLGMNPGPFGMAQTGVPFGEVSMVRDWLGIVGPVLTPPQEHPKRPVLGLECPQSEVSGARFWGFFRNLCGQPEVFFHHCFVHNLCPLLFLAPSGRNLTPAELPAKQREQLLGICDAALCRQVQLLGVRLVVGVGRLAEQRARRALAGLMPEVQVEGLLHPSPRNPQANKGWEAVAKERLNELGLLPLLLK

[9] = target: T3, Endonuclease 8-like 2 (Homo sapiens) (UniProt Q969S2); details: Compound Concentration 10.0 uM, Hit No;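 note: fluorescence at 594 nm reports NEIL2 cutting and release of a quenched double-stranded DNA oligo substrate, reduced signal read as inhibition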
T3 sequence (whole entry): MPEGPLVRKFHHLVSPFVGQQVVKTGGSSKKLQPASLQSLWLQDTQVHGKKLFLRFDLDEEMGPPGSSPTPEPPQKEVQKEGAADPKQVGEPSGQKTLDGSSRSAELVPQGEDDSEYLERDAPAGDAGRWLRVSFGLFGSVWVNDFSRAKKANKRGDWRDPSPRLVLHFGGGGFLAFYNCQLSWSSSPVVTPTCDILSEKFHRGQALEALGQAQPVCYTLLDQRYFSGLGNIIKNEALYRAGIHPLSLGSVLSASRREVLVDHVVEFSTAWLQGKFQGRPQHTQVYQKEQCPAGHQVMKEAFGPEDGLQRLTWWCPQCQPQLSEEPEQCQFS

Sequence of G/T mismatch-specific thymine DNA glycosylase (Homo sapiens) (Q13569 whole entry, the tested form may be a part): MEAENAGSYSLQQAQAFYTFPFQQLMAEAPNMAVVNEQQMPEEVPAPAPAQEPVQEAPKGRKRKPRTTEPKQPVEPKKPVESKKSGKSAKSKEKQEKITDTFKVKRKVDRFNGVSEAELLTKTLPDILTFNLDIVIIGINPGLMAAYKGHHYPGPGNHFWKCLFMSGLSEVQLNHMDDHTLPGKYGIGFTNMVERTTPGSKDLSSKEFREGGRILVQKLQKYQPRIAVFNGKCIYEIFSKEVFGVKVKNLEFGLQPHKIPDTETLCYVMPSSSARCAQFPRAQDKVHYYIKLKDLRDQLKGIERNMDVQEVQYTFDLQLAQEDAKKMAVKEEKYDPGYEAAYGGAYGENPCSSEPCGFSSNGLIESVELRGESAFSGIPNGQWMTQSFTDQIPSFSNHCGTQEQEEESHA
Sequence of DNA-3-methyladenine glycosylase (Homo sapiens) (P29372 whole entry): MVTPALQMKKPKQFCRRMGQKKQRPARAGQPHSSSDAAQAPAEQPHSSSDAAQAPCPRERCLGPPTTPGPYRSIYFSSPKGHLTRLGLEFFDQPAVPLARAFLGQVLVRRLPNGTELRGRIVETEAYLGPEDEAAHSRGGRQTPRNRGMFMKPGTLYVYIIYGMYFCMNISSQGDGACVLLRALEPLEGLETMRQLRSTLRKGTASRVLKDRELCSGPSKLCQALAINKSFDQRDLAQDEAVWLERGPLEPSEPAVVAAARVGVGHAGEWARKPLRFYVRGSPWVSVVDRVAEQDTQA
Sequence of Uracil-DNA glycosylase (Homo sapiens) (P13051 whole entry): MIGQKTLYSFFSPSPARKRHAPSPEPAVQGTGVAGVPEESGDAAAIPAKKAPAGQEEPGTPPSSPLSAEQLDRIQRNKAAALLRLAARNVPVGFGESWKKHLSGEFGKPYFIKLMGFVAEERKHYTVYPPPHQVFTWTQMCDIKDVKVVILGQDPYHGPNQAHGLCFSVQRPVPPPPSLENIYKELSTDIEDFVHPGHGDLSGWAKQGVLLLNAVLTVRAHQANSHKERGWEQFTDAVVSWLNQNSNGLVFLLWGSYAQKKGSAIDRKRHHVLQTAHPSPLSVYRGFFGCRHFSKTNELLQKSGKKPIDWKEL
Sequence of N-glycosylase/DNA lyase (Homo sapiens) (O15527 whole entry): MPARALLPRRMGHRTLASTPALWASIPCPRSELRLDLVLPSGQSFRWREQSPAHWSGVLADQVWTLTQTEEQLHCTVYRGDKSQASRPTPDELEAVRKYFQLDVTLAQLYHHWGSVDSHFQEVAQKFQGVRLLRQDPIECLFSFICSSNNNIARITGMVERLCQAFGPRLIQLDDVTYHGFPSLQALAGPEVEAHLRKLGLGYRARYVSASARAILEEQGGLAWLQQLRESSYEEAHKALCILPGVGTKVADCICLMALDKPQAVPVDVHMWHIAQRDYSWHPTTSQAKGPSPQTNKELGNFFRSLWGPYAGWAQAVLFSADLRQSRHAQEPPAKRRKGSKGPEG
Sequence of Methyl-CpG-binding domain protein 4 (Homo sapiens) (O95243 whole entry, the tested form may be a part): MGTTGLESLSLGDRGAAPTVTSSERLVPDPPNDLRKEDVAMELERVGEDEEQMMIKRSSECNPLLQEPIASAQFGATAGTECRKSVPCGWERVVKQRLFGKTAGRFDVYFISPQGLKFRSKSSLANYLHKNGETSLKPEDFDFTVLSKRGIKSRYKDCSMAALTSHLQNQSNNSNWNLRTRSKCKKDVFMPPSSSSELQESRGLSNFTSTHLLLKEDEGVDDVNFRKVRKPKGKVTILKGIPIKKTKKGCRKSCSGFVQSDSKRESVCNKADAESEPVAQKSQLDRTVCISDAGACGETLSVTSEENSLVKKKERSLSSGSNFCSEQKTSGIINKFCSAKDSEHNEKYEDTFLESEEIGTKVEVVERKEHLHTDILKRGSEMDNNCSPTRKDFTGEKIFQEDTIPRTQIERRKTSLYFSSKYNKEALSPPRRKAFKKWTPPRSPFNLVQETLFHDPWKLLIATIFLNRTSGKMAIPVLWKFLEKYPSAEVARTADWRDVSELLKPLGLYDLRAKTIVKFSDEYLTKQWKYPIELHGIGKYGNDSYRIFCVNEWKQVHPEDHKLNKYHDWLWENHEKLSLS
Sequence of Endonuclease 8-like 1 (Homo sapiens) (Q96FI4 whole entry): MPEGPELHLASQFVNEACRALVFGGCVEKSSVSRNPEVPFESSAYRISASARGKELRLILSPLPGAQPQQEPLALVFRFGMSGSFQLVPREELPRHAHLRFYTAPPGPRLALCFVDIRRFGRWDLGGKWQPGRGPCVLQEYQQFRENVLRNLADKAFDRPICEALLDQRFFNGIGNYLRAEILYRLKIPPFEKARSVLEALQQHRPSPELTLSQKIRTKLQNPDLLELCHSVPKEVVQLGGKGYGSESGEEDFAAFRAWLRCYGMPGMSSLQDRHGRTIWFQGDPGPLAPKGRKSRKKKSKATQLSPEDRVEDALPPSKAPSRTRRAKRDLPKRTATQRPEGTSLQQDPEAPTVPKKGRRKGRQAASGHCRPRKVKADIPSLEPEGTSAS

| SMILES | inhibition [1] | inhibition [2] | inhibition [3] | inhibition ([4]; Hit No) | inhibition ([5]; Hit No) | inhibition ([6]; Hit No) | inhibition [7] | inhibition [8] | inhibition [9] | inhibition ([4]; Hit Yes) | inhibition ([5]; Hit Yes) | inhibition ([6]; Hit Yes) |
| --- | --- | --- | --- | --- | --- | --- | --- | --- | --- | --- | --- | --- |
| CSc1ccc(C(=O)N[C@@H]2CCCC[C@@H]2NC(=O)CNC(=O)c2cc(C(F)(F)F)ccc2NC(=O)NC(C)C)cc1 | -0.695% | -0.224% | 0.537% | -1.67% | 20.7% | 13.3% | 2.07% | 0.0151% | 14.5% |  |  |  |
| COc1ccc2[nH]cc(CCNC(C)=O)c2c1 | -7.83% | -4.66% | 1.13% | -3.95% | 5.88% | -1.65% | 19.4% | -7.74% | 1.51% |  |  |  |
| COc1ccccc1/C=N/NC(=O)COc1ccc(Cl)cc1C | -5.19% | 2.66% | 8.6% | 9.76% | 18.2% | 18.4% | 10.8% | 14% | -3.15% |  |  |  |
| Cc1ccccc1C(=O)Nc1ccc(C(=O)N2CCCC(O)c3cc(Cl)ccc32)c(C)c1 (stereo not drawn) | -8.3% | -1.2% | 6.76% | 0.836% | 18.4% | -1.3% | 12.2% | -8.66% | 1.01% |  |  |  |
| CC(Cc1ccc(O)c(O)c1)C(C)Cc1ccc(O)c(O)c1 (stereo not drawn) | 1.91% | 28.8% | 12.4% | 19.4% | 40% | 58.5% | 35.6% | -6.33% | 0.265% |  |  |  |
| CC(C)NCC(O)COc1ccc(CCOCC2CC2)cc1 (stereo not drawn) | -7.33% | -0.494% | -5.99% | -1.52% | 21.4% | 4.74% | -5.48% | 5.49% | -0.983% |  |  |  |
| C/C(=N\NC(=O)[C@@H]1C(=O)NC[C@H]1c1ccccc1)c1cccc(Br)c1 | -1.98% | -0.141% | -1.98% | -1.9% | 17.2% | 0.963% | 11% | 9.22% | 6.5% |  |  |  |
| CCCCCNC(=N)N/N=C/c1c[nH]c2ccc(OC)cc12 | -3.68% | 2.43% | -9.54% |  |  |  | 114% | -3.67% | 20.7% | 108% | 103% | 114% |
| COc1ccc(S(=O)(=O)N2c3ccc(Cl)cc3[C@](O)(c3ccccc3Cl)[C@@H]2C(=O)N2CCC[C@H]2C(N)=O)cc1OC | -8.37% | -5.95% | -2.72% | 8.66% | 10.6% | -7.23% | 28.9% | -8.03% | -0.733% |  |  |  |
| COc1ccc(CNC(=O)c2cc(-c3cncc(Cl)c3)cnc2-c2ccccn2)nc1OC | -5.71% | -1.43% | -8.51% | -0.668% | 11.4% | 0.324% | -1% | -1.29% | 6.5% |  |  |  |
| O=C(Nc1ccc(Cl)nc1)c1ccc(Cl)cc1 | 1.37% | 6.76% | 6.68% | 18.7% | 21.2% | 19.3% | 26.6% | 3.71% | 5.25% |  |  |  |
| COCCn1c(C)c(C)s/c1=N\C(=O)C1C(C)(C)C1(C)C | -7.32% | 5.33% | 3.06% | -8.69% | 7.06% | -7.23% | 20.8% | -0.421% | 1.51% |  |  |  |
| CCc1ccc(OCc2ccccc2C(=O)Nc2ccc3nc(C)cc(N)c3c2)cc1 | -2.29% | 12.5% | -4.06% |  |  | 43.2% | 77.8% | -3.13% | 16.5% | 71.5% | 82.5% |  |
| COc1cc2nc(N3CCN(C(=O)c4ccco4)CC3)nc(N)c2cc1OC | -8.11% | 0.771% | 5.73% | 11.1% | 4.76% | 7.24% | 14% | -2.6% | 10% |  |  |  |
| Cc1nnc2n1-c1sc(CCC(=O)N3CCOCC3)cc1C(c1ccccc1Cl)=NC2 | -6.5% | 0.211% | 5.28% | -4.33% | 14.6% | -1.19% | 16.7% | -7.88% | 7.25% |  |  |  |
| CCOc1nc2cccc(C(=O)O)c2n1Cc1ccc(-c2ccccc2-c2nnn[nH]2)cc1 | -8.46% | 0.813% | 2.02% | -3.68% | 6.47% | 1.2% | 2.84% | -0.0333% | 7% |  |  |  |
| CC(C1CC2CCC1C2)n1c(S)nnc1-c1ccco1 (stereo not drawn) | -6.26% | -7.6% | 1.64% | 19.5% | 22.6% | 23.6% | 19.9% | 13.7% | 9.84% |  |  |  |
| O=C(O)CC/C=C\C[C@@H]1CO[C@H](c2ccccc2Cl)O[C@@H]1c1ccccc1O | -7.83% | -7.71% | -2.87% | 4.5% | 13.8% | 0.092% | 8.47% | 0.5% | 0.265% |  |  |  |
| Cc1noc(-c2ccc(-c3ccc(CC(=O)O)cc3)cc2)c1NC(=O)O[C@H](C)c1ccccc1Cl | -9.06% | 10.8% | -3.47% | 10.4% | 43.6% | 45.9% | 53.1% | -3.86% | -4.48% |  |  |  |
| Cn1c(SCc2ccc(C(C)(C)C)cc2)nc(N)cc1=O | -6.37% | -4.44% | -0.435% | 9.09% | 8.05% | 12.4% | 6.33% | -4.37% | 5.25% |  |  |  |
| CCOC(=O)c1cc(C#N)c(N2CCC(C(=O)NS(=O)(=O)Cc3ccccc3)CC2)nc1C | -6.55% | 4.63% | -0.649% | 0.797% | 22.6% | 12% | 13.3% | 7.04% | -3.73% |  |  |  |
| CC(C)(C#Cc1ccc(NC(=O)COc2ccccc2C(=O)c2ccccc2)c(Cl)c1)C(=O)O | 7.11% | 49.5% | -9.68% | 115% | 61.6% | 83.7% | 16.2% | 12.2% | 15.6% |  |  |  |

Source: ChEMBL document CHEMBL5665443, “Enzyme Inhibitor Single Concentration assay results for EUbOPEN Chemogenomics Library” (2024)
